The text below walks through data of US8178578B2, “Chemical compounds” (The University of Manchester, priority 2006, dated 2012).

In data set [1] the test system is K562 human chronic myelogenous leukaemia cell line. The experiment in a line: Test (a): growth inhibitory activity, MTT assay. It counts as cell-based. The settings on record: 120 h, K562 cells, 5 days incubation, read-out: IC50 - Assay (a), concentration to inhibit 50% cell proliferation. As to the method:
The compounds of the present invention were tested in test (a) for growth inhibitory activity (IC50) against the K562 human chronic myelogenous leukaemia cell line using a MTT assay generally as described in Tada, H., Shiho, O., Kuroshima, K., Koyama, M., Tsukamoto, K., J. Immunol. Methods 1986, 93, 157 and Edmondson, J. M., Armstrong, L. S., Martinez, A. O., J. Tissue Culture Methods 1988, 11, 15. Cells were cultured in Roswell Park Memorial Institute (RPMI) medium, free of antibiotics and containing L-glutamine ([…]), supplemented with 10% foetal calf serum. A single suspension of the K562 cell line was tested from an exponentially growing culture. The cells were counted using a haemocytometer, and diluted to 5×10^3/ml.
A compound of the present invention was dissolved in dimethylsulfoxide (DMSO) at a concentration of 50 μM and 4 μl of the DMSO solution was added to the cell suspension (4 ml). 1 ml of this solution was added to a further 1 ml of cell solution in a neighbouring tube, giving a compound half that of the initial dilution. The dilutions were continued in the same manner affording seven samples at different concentrations. One cell solution was left compound free as a control. Treated cells (200 μl) were pipetted in triplicate into a 96-well plate and incubated at 37° C. in a 5% CO2 in air atmosphere for 5 days. After this time, the plate was removed from the incubator and a solution of (3-(4,5-dimethylthiazol-2-yl)-2,5-diphenyltetrazolium bromide (MTT) (50 μl, 3 mg/ml in phosphate buffered saline (PBS)) was added to each well. After a further 3 hour incubation period under the same conditions, the medium was carefully removed from each well by suction and the resulting formazan precipitate was dissolved in DMSO (200 μl). The optical density of each well was then read (540 nm) using a Titretek Multiscan MCC/340 platereader. After processing and analysis through the application of an ‘in-house’ software package, the results obtained enabled the calculation of the drug dose required to inhibit cellular growth by 50% (GI50 or IC50 value).
On the technique in general: Tetrazolium dyes change colour on reduction, which living cells bring about.

Data set [2] deals with tubulin. The experiment in a line: Test (b): inhibition of tubulin assembly. It counts as biochemical. To be noted: absorbance at 350 nm over 20 minutes, 37° C.; read-out: IC50 - Assay (b), concentration for 50% inhibition of tubulin assembly. On the procedure: The compounds of the present invention were also tested in assay (b) for their ability to inhibit tubulin assembly generally as described in McGown and Fox, “Structural and biochemical comparison of the anti-mitotic agents colchicine, combretastatin A-4 and amphethinile” Anti-Cancer Drug Design, 3, 249, 1989.
Samples were prepared in quartz cuvettes at 0° C. and contained 2-morpholinoethanesulfonic acid (MES) buffer (740 μl, 0.1 M MES, 1 mM ethylene glycol tetraacetic acid (EGTA), 0.5 mM MgCl2, pH 6.6), a compound of the present invention (10 μl, 1 mM in DMSO), tubulin (150 μl, 1/4 dilution of neat tubulin in MES buffer) and GTP (100 μl, 10 mM). The overall concentration of the compound in solution was therefore 10 μM. The cell was mixed well, dried and immediately placed in a Varian Cary 1 UV/Visible spectrophotometer, preheated to 37° C., along with a control sample containing MES buffer (740 μl), guanosine triphosphate (GTP) (100 μl, 10 mM), tubulin (150 μl, concentration as before) and DMSO (10 μl). The absorbance at 350 nm was recorded over a period of 20 minutes. The results were compared with the untreated control experiment to assess the relative degree of change in optical density. If assembly was less than 50% of that of the control, the experiment was repeated using decreasing concentrations (from 1 mM) of the compound in order to determine the activity.

In data set [3] the test system is DLD-1 tumours (colon carcinomas). The experiment in a line: Test (c): in vivo functional vasculature study with Hoechst 33342. Set-up: species or system mice. The settings on record: single intraperitoneal dose at believed maximum tolerated dose. As to the method: The compounds of the present invention were also tested in in vivo functional vasculature studies using the fluorescent DNA-binding compound Hoechst 33342 (H33342)
Twenty-eight mice were used for test (c). The tumours used were colon carcinomas (DLD-1). Once the tumours reached a suitable size, mice were randomised and assigned into 10 groups with one control group and 3 groups for each compound to be tested (referred to as a “drug group”). Mice in a drug group were treated intraperitoneally with a single dose of a compound of the present invention at a dose believed to be the maximum tolerated dose for each compound being tested (the maximum tolerated dose being measured by dosing mice with increasing amounts of compound (normally doubling the previous dose) until it is either fatal or the animal suffers substantial weight loss or has become distressed). The dose for the compound of Example 1 was 60 mg/kg, for the compound of Example 2 was 120 mg/kg and for the compound of Example 3 was 270 mg/kg. The control group was untreated. H33342 was then injected intravenously at 40 mg/kg to the treated mice 4, 8 and 24 hours after administration of a compound of the present invention and after 24 hours to the untreated control mice. After one minute, each mouse was killed by cervical dislocation and the tumours were removed. Following this procedure the H33342 is confined to the nuclei of cells adjacent to the blood vessels. The tumours were wrapped in aluminium foil and immediately snap-frozen in liquid nitrogen and then stored at −80° C. until required for sectioning. For assessment of tumour vasculature, 10 μm-thick sections were cut using a cryostat (Leica, CM 1100, Scientific Laboratory Supplies, UK) with intervals between sections of 200 μm. The sections were placed on glass slides and allowed to air dry before viewing under a light microscope using UV illumination. Functional vascular volume was quantified using a point scoring system as described previously (Cowen S. E., Bibby M. C., Double J. A., Characterisation of the vasculature within a murine adenocarcinoma growing in different sites to evaluate the potential of vascular therapies, Acta Oncologica, 1995, 34, 357-60). Using a graticule with 22×16 grids, points crossing areas of fluorescence were counted as positive points. The total number of positive points was used to calculate the percentage of functional vasculature. Five sections per tumour and 5 fields per section were examined for tumours.
The results of test (c) are shown in FIG. 1, which is a graph showing relative percentage of control functional vasculature in the DLD-1 tumours after treatment with the compounds of Examples 1, 2 and 3 at doses of 60, 120 and 270 mg/kg respectively. Each point plotted in the graph of FIG. 1 represents the mean percentage of control functional vasculature for each time-point.

Data set [4] can be described thus: Maximum tolerated dose by dose escalation in mice. To be noted: mouse, in vivo, ip, single intraperitoneal dose, read-out: dose believed to be the maximum tolerated dose.

One may read the melting point as the temperature, or range, at which the solid turns liquid.

SMILES strings stand for the structures.

`COc1ccc2c(c1OP(=O)([O][Na+])[O][Na+])COCc1cc(OC)c(OC)c(OC)c1-2` [Example 4, 3,9,10,11-Tetramethoxy-5,7-dihydrodibenzo[c,e]oxepin-4-yl disodium phosphate]: the IC50 was 0.23 nM in data set [1] and 700 nM in data set [2].

The molecule `COc1cc2c(c(OC)c1OC)-c1ccc(N)cc1COC2` [Example 6, 9,10,11-Trimethoxy-5,7-dihydrodibenzo[c,e]oxepin-3-amine] had a melting point of 145 °C.

As to `COc1ccc2c(c1OS(=O)(=O)C(F)(F)F)COCc1cc(OC)c(OC)c(OC)c1-2` [Example 7, 3,9,10,11-Tetramethoxy-5,7-dihydrodibenzo[c,e]oxepin-4-yl trifluoromethanesulfonate], the melting point stood at 164 °C.

For the molecule `COc1ccc2c(c1O)COCc1cc(OC)c(OC)c(OC)c1-2` [Example 3, 3,9,10,11-Tetramethoxy-5,7-dihydrodibenzo[c,e]oxepin-4-ol], the “functional vasculature in DLD-1 tumours compared to control tumours” value in data set [3] (4 hours post-treatment) is on record as “dramatically decreased”; in data set [3] (8 hours post-treatment), “restored back to above control level”; in data set [3] (24 hours post-treatment), “significantly decreased”. Moreover, the values for the IC50 in data set [1] and in data set [2] were 33.9 nM and 800 nM, respectively. Also, the MTD in data set [4] is 270 mg/kg.

`COc1cc2c(c(OC)c1OC)-c1cc3c(cc1COC2)OCO3` [Example 2, 5,7-Dihydro-1,2,3-trimethoxybenzo[d][1,3]dioxolo[4,5-h][2]benzoxepin]: the figures for the “functional vasculature in DLD-1 tumours compared to control tumours” value in data set [3] (4 hours post-treatment), in data set [3] (8 hours post-treatment) and in data set [3] (24 hours post-treatment) were “no difference”, “no difference” and “significant functional vasculature decrease”, respectively. Moreover, the MTD in data set [4] came out at 120 mg/kg.

As to `COc1cc2c(c(OC)c1OC)-c1ccc([N+](=O)[O-])cc1COC2` [Example 5, 1,2,3-Trimethoxy-9-nitro-5,7-dihydrodibenzo[c,e]oxepine], the melting point is 161 °C.

For `COc1ccc2c(c1N)COCc1cc(OC)c(OC)c(OC)c1-2` [Example 9, 3,9,10,11-Tetramethoxy-5,7-dihydrodibenzo[c,e]oxepin-4-amine], the IC50 is 2 nM in data set [1] and 900 nM in data set [2].

As to `COc1ccc2c(c1)COCc1cc(OC)c(OC)c(OC)c1-2` [Example 1, 1,2,3,9-Tetramethoxy-5,7-dihydrodibenzo[c,e]oxepine], the “functional vasculature in DLD-1 tumours compared to control tumours” value in data set [3] (8 hours post-treatment) and in data set [3] (24 hours post-treatment) was “significant decrease” in each case. Besides, the IC50 was determined as 110 nM in data set [1] and 5700 nM in data set [2]. The MTD in data set [4] is 60 mg/kg.
